Experimental data published in publication PMC7942396, “Drug Repurposing Screen for Compounds Inhibiting the Cytopathic Effect of SARS-CoV-2” (Frontiers in Pharmacology, 2021).
Structures can show the parent of a compound that is named as a salt. Where two headings read alike, the source gives them in different places.

Columns and labels:
[1] = tested on: SARS-CoV-2 (USA_WA1/2020); assay: microbe, parasite or virus in culture; assay type: cell-based; settings: for EC50: read-out: CPE EC50
Vero E6 cells = Vero E6 cells without virus; for CC50: read-out: Cytotox CC50
[2] = SARS-CoV-2 CPE assay, Vero E6 cells, confirmed anti-SARS-CoV-2 compounds
[3] = SARS-CoV-2 CPE assay, Vero E6 cells, efficacy
[4] = SARS-CoV-2 CPE assay, Vero E6 cells
[5] = […], DMSO 0%, no-virus control 100%, hit confirmation

| Compound | EC50 [1, 2] [µM] | CPE % Efficacy [1, 3] [%] | % Cytotox (Vero E6 cells; cytotoxicity counter-assay) [%] | CC50 (Vero E6 cells; cytotoxicity counter-assay) [µM] | further results |
| --- | --- | --- | --- | --- | --- |
| CC(C)CCC[C@@H](C)[C@H]1CC[C@H]2[C@@H]3CC=C4C[C@@H](OC(=O)NCCN(C)C)CC[C@]4(C)[C@H]3CC[C@]12C.Cl | 11.2 | 40.5 | 37.0 | 10 | – |
| CN1CCN(C(=O)c2ccc(Nc3nccc(-c4cccs4)n3)cc2Cl)CC1 | 11.2 | 71.5 | 55.6 | 10 | – |
| 10058-F4 | – | – | 34.2 | – | CPE % Efficacy [1, 4]: 62.2%; EC50 [1, 4]: 12.6 µM |
| COC(=O)CC[C@@H](C)[C@H]1CC[C@H]2[C@@H]3CC[C@@H]4C[C@H](OC(C)=O)CC[C@]4(C)[C@H]3C[C@H](O)[C@]12C (racemic) | – | – | 0.0 | – | CPE % Efficacy [1, 4]: 62.5%; EC50 [1, 4]: 12.6 µM |
| COc1ccccc1N1CCN(CC[C@@](C)(C(=O)C2CCCCC2)c2ccccc2)CC1 [(R)-(-)-LY 426965 dihydrochloride, reference compound] | – | – | – | – | CPE % Efficacy [1, 5]: 110.7%; EC50 [1]: 10 µM; % Cytotox (Vero E6 cells; 72 h): <30% |
| COc1cccc(NC[C@@H](O)Cn2c3ccc(Br)cc3c3cc(Br)ccc32)c1 [(R)-P7C3-Ome] | – | – | 32.2 | 11.2 | CPE % Efficacy [1, 4]: 63.4%; EC50 [1, 4]: 12.6 µM |
| Nc1nc2c(c(N3CC[C@@H](N)C3)n1)CCCc1ccccc1-2 [A 943931] | 11.2 | 104.3 | 34.8 | 12.6 | – |
| Cc1c(NC(=O)OC[C@@H]2COCCN2)cn2ncnc(Nc3ccc4c(cnn4Cc4cccc(F)c4)c3)c12 [AC480 (BMS-599626)] | 11.2 | 62.3 | 67.2 | 12.6 | – |
| Nc1ncnc2c1c(-c1cccc(OCc3ccccc3)c1)cn2C1CC(CN2CCCC2)C1 (centres unmarked) [ADW-742] | 7.94 | 55.7 | 106.8 | 12.6 | – |
| CN1CCCCC1Cn1cc(C(=O)c2cc([N+](=O)[O-])ccc2I)c2ccccc21 (centres unmarked) [AM1241, reference compound] | – | – | – | – | CPE % Efficacy [1, 5]: 97.6%; EC50 [1]: 10 µM; % Cytotox (Vero E6 cells; 72 h): <30% |
| O=C1NC(=O)/C(=C/c2ccc3c(c2)OC(F)(F)O3)S1 [AS-604850] | – | – | 31.8 | 11.2 | CPE % Efficacy [1, 4]: 49.2%; EC50 [1, 4]: 12.6 µM |
| C[C@@H]1CN(CC(=O)N2CC(C)(C)c3ncc(Cc4ccc(F)cc4)cc32)[C@@H](CN2CCOC[C@H]2C)CN1 [AT-IAP] | – | – | 0.0 | – | CPE % Efficacy [1, 4]: 56.2% |
| Cl.Cl.Clc1ccccc1CNCC1CCC(CNCc2ccccc2Cl)CC1 (centres unmarked) [AY 9944 dihydrochloride] | 3.16 | 41.0 | 48.2 | 12.6 | – |
| CN1CCN(S(=O)(=O)c2ccc(-c3cnc(N)c(C(=O)Nc4cccnc4)n3)cc2)CC1 [AZD-2858] | – | 80.0 | 41.0 | 12.6 | – |
| O=c1[nH]c2ccccc2n1C1CCN(Cc2ccc(-c3nc4cc5nc[nH]c5cc4nc3-c3ccccc3)cc2)CC1 [Akt-I-1,2] | – | – | 34.2 | 12.6 | CPE % Efficacy [1, 4]: 91.3%; EC50 [1, 4]: 11.2 µM |
| CCCCCCCCCCCCCCCc1cccc(O)c1C(=O)O [Anacardic Acid] | 3.98 | 89.6 | 72.9 | – | – |
| C/C1=C/CCC2=CC(OC2=O)C(C)(C)/C=C\C1=O (centres unmarked) [Asteriscunolide D, reference compound] | – | – | – | – | CPE % Efficacy [1, 5]: 93.3%; EC50 [1]: 10 µM; % Cytotox (Vero E6 cells; 72 h): <30% |
| NC(=O)c1ccc2nc(-c3ccc(Oc4ccc(Cl)cc4)cc3)[nH]c2c1 [BML-277] | – | 73.6 | 33.9 | – | – |

| Compound | EC50 [1, 2] [µM] | CPE % Efficacy [1, 3] [%] | % Cytotox (Vero E6 cells; cytotoxicity counter-assay) [%] | CC50 (Vero E6 cells; cytotoxicity counter-assay) [µM] | further results |
| --- | --- | --- | --- | --- | --- |
| CC(C)c1cnn2c(NCc3ccccc3)cc(NCCCCCCN)nc12 [BS-181] | 10 | 83.4 | 32.0 | – | – |
| CO/C1=C\C(C)=C\[C@@H](C)[C@@H](O)[C@@H](C)C/C(C)=C/C=C/[C@H](OC)[C@@H]([C@@H](C)[C@@H](O)[C@H](C)[C@@]2(O)C[C@@H](O)[C@H](C)[C@@H](C(C)C)O2)OC1=O [Bafilomycin A1 from Streptomyces griseus] | 0.0113 | 69.3 | 58.6 | 0.1 | – |
| Cl.O=C1Nc2nc(-c3c(O)cccc3OCC3CC3)cc([C@@H]3CCCNC3)c2CO1 [Bay-65-1942 hydrochloride] | – | – | 23.5 | 11.2 | CPE % Efficacy [1, 4]: 53.9%; EC50 [1, 4]: 11.2 µM |
| COc1cc2c3cc1Oc1c(OC)c(OC)cc4c1[C@@H](Cc1ccc(O)c(c1)Oc1ccc(cc1)C[C@@H]3N(C)CC2)N(C)CC4 [Berbamine dihydrochloride] | 2.82 | 79.0 | 50.1 | 11.2 | – |
| C/C=C(/C)C(=O)O[C@H]1[C@@H]2[C@H](C)C(=O)O[C@@H]2C[C@@H](C)[C@@H]2C=CC(=O)[C@]21C [Brevelin A] | 3.55 | 61.5 | 59.7 | 11.2 | – |
| CC(C)(C)c1ccc(CN2CCN(C(c3ccccc3)c3ccc(Cl)cc3)CC2)cc1.Cl.Cl (centres unmarked) [Buclizine HCl] | – | – | 0.0 | – | CPE % Efficacy [1, 4]: 86.2%; EC50 [1, 4]: 14.1 µM |
| CCCCCCOc1ccc(C(=N)N(CCCC)CCCC)c2ccccc12.Cl [Bunamidine hydrochloride] | 4.47 | 84.9 | 109.2 | 11.2 | – |
| COc1cc2nc(N3CCC(N4CCCCC4)CC3)nc(NC3CCCCCC3)c2cc1OC.Cl.Cl [C 021 dihydrochloride] | 3.55 | 79.7 | 108.9 | 7.08 | – |
| O=C(NCc1ccccc1)[C@H](Cc1ccccc1)NC(=O)[C@H]1O[C@@H]1C(=O)NCCc1ccc(O)cc1 [CAA-0225, reference compound] | – | – | – | – | CPE % Efficacy [1, 5]: 99.3%; EC50 [1]: 0.2 µM; % Cytotox (Vero E6 cells; 72 h): <30% |
| Br.O=C(CN1C2=NCCN2c2ccccc21)c1ccc(-c2ccccc2)cc1 [CCT 031374 hydrobromide] | 7.94 | 63.4 | 33.8 | 12.6 | – |
| CCc1cc(-c2n[nH]c(C)c2-c2ccc3c(c2)OCCO3)c(O)cc1O [CCT-018159] | – | – | 34.2 | – | CPE % Efficacy [1, 4]: 74.6%; EC50 [1, 4]: 14.1 µM |
| Cn1cc(-c2ccc(-c3cncc(Cl)c3N3CCC4(CCNC4=O)CC3)cc2)cn1 [CCT-251545] | – | – | 0.0 | – | CPE % Efficacy [1, 4]: 65.2%; EC50 [1, 4]: 14.1 µM |
| CCCCCCCc1ccc(CCc2cccc(O)c2C(=O)O)cc1 [MG-149] | – | – | 23.4 | – | – |
| CCC(C)CNCC(=O)N1CCc2sccc2C1COc1cccc(C)c1.Cl (centres unmarked) [RU-SKI 43 (hydrochloride)] | – | – | 21.4 | 8.91 | – |
| CN(C)CCCN1c2ccccc2Sc2ccc(C(F)(F)F)cc21 [Triflupromazine hydrochloride] | – | – | – | – | EC50 ([1]; Severe acute respiratory syndrome coronavirus 2, Vero C1008, SARS-CoV-2 CPE assay, Vero E6 cells, confirmed anti-SARS-CoV-2 compounds): 10 µM; Emax ([1]; Severe acute respiratory syndrome coronavirus 2, Vero C1008, SARS-CoV-2 CPE assay, Vero E6 cells, efficacy, read-out: CPE % Efficacy): 77.3% |
| CN(C)C(=O)COC(=O)Cc1ccc(OC(=O)c2ccc(NC(=N)N)cc2)cc1 [camostat, reference compound] | – | – | – | – | Activity in the Vero E6 assay [1]: not active |
| N=C(N)Nc1ccc(C(=O)Oc2ccc3cc(C(=N)N)ccc3c2)cc1 [nafamstat, reference compound] | – | – | – | – | Activity in the Vero E6 assay [1]: not active |
| Oligomycin A | 3.98 | 104.5 | – | – | – |
